Measurements as given in patent publication US8916517B2, “Analogs of pituitary adenylate cyclase-activating polypeptide (PACAP) and methods for their use” (The Administrators of the Tulane Educational Fund, priority 2009, dated 2014).
Several values for one entry are separate records, joined by “and”; a condition that tells them apart may be missing. Equal entries are not always repeated. Entries after “also recorded” stand apart in the source; their conditions may differ. Where two headings read alike, the source gives them in different places.

How the values were obtained:
[1] = system: light-chain immunoglobulin-secreting human multiple myeloma cells; assay: Inhibition of proliferation of light-chain immunoglobulin-secreting human multiple myeloma cells (bromodeoxyuridine incorporation); assay type: cell-based
Protocol: FIG. 3 is a table listing the EC50 for the inhibitory effects of PACAP38, PACAP27, VIP, and eight novel PACAP analogs on the proliferation of light-chain immunoglobulin-secreting myeloma cells. The light-chain immunoglobulin-secreting human multiple myeloma cells were cultured in RPMI 1640 medium supplemented with 10% non-inactivated fetal bovine serum and 0.05 mM 2-mercaptoethanol. The effects of PACAP38, PACAP27, VIP, and the eight novel PACAP analogs on myeloma cell proliferation were assessed by determining incorporation of bromodeoxyuridine into DNA during cell division. The number of myeloma cells approximately doubled during the 24-hour incubation period in the absence of treatment with PACAP-like peptides. Five different concentrations, ranging from 10^-13 M to 10^-5 M, were tested for PACAP38, PACAP27, VIP, and each of the eight novel PACAP analogs. The EC50 was calculated from the concentration response curve using the software package Prism (Graph Pad, San Diego, CA). Each value represents the mean of four-six determinations per experiment. The EC50 for PACAP38 is based on the average of four separate experiments, while the EC50 for PACAP27 and [Pip^3,Aib ^16,28,Ala^17,Lys^34,D-LysIPACAP 38 (SEQ ID NO: 4) is based on the average of two separate experiments.
FIG. 4 is a graph showing a representative concentration response curve from a single experiment on the inhibitory effects PACAP38 and six PACAP38 analogs on the proliferation of light-chain immunoglobulin-secreting human myeloma cells. Each value represents the mean plus/minus the standard error of four-six determinations. Note that replacing pipecolic acid in position 3 of the novel analogs with either nipecotic acid or isonipecotic acid results in an analog with more than four orders of magnitude lower inhibitory potency.
The effects of PACAP38, PACAP27, VIP, and PACAP analogs on myeloma cell proliferation were assessed by determining incorporation bromodeoxyuridine into DNA during cell division. […]

[2] = system: rat renal proximal tubule epithelial cells; assay: Reduction of cisplatin-induced apoptotic cell death of renal proximal tubule epithelial cells (histone-associated DNA fragmentation); assay type: cell-based; conditions: cisplatin 24 hours; for reduction in cisplatin-induced apoptotic cell death: 10^-6 M in the medium
[3] = system: ischemia/reperfusion injury to the kidney; assay: Serum creatinine after renal ischemia/reperfusion injury in mice; assay type: in vivo, male C57BL/6 mice; conditions: 20 micrograms i.p. 1, 24 and 48 h after start of reperfusion; 45 min renal artery clamping; 72 hours
Protocol: FIG. 6 is a graph showing the effects of PACAP38 and two novel PACAP analogs on serum creatinine levels in mice following ischemia/reperfusion injury to the kidney. The renal artery in male C57BL/6 mice was clamped bilaterally for 45 minutes in all mice except for the sham-operated mice. Twenty micrograms of PACAP38 or one of the PACAP analogs were given intraperitoneally 1 hour after the start of reperfusion and additional doses were given at 24 and 48 hours after the initial dose. The sham-operated group of mice was injected intraperitoneally with PACAP38 on the same schedule as the mice subjected to ischemia/reperfusion. The control group of mice was injected intraperitoneally with the same volume of saline as for the injections of PACAP38 on the same schedule. All of the mice were euthanized 24 hours after the final injection of saline, PACAP38 or one of the novel PACAP analogs. Each value represents the mean plus/minus the standard error of four determinations. **p<0.01 and *p<0.05 compared to the ischemia/reperfusion group treated with saline. I/R, ischemia/reperfusion; sham, sham-operated.

[4] = system: human myeloma cell line (MM.1S); assay: Proliferation of myeloma cell line MM.1S (bromodeoxyuridine incorporation); assay type: cell-based; conditions: FIG. 8
Protocol: (§1) FIG. 8 is a graph showing the effects PACAP38, [Pip^3,Ala^14,17,Aib^1 6,28,Lys^34,D-Lys^38 (SEQ ID NO: 6) and dexamethasone on the proliferation of light-chain immunoglobulin-secreting human myeloma cell line (MM.1S) that was derived from a patient who was being treated for multiple myeloma with a dexamethasome-containing regimen. The light-chain immunoglobulin-secreting multiple myeloma cells were cultured in RPMI 1640 medium supplemented with 10% non-inactivated fetal bovine serum and 0.05mM 2-mercaptoethanol. The effects of dexamethasone, PACAP38 and the novel PACAP38analog on cell proliferation were assessed by determining the incorporation of bromodeoxyuridine into DNA during cell division. Each value represents the mean plus/minus the standard error of four-six determinations. The cell lines in FIGS. 8 and 9 were obtained from the same patient at different stages of the treatment (Greenstein et al., Exp HematoI31 :271-282, 2003).

[5] = system: human myeloma cell line (MM.1 R); assay: Proliferation of dexamethasone-resistant myeloma cell line MM.1R (bromodeoxyuridine incorporation); assay type: cell-based; conditions: FIG. 9
Protocol: as §1, with “FIG. 9” for “FIG. 8”, “PACAP38, [Pip^3,Ala^14,17,Aib^16,28,Lys^34,D-Lys^38] PACAP38(SEQ” for “PACAP38, [Pip^3,Ala^14,17,Aib^1 6,28,Lys^34,D-Lys^38 (SEQ”, “line (MM.1 R)” for “line (MM.1S)”, “novel PACAP38 analog” for “novel PACAP38analog”, “four-six determination.” for “four-six determinations.”, “Exp Hematol 31” for “Exp HematoI31”

[6] = system: human renal proximal tubule epithelial cells; assay: Reduction of gentamicin-induced apoptotic cell death of human renal proximal tubule epithelial cells; assay type: cell-based; conditions: gentamicin 24 hours
Protocol: The inhibitory effects of PACAP38 and the novel PACAP analog on apoptotic cell death was assessed by the quantitative determination of cytoplasmic histone-associated DNA-fragmentation (mono- and oligonucleosomes) after exposure to gentamicin for 24 hours. […] Each value represents the mean plus/minus the standard deviation of four determinations. **p<0.01 and *p<0.05 compared to the group treated only with gentamicin.

[7] = system: transient focal cerebral ischemia; conditions: 48 hours, cited from earlier work
[8] = rat, in vivo, iv; cited from earlier work
[9] = system: rat hippocampal neuron/glia co-cultures; conditions: gp120 as neurotoxin; cited from earlier work
[10] = humans; cited from earlier work
PAC1 receptor = molecular target: T1, PAC1 receptor (Homo sapiens, UniProt P41586); conditions: cited from earlier work
T1 sequence (P41586 21-468): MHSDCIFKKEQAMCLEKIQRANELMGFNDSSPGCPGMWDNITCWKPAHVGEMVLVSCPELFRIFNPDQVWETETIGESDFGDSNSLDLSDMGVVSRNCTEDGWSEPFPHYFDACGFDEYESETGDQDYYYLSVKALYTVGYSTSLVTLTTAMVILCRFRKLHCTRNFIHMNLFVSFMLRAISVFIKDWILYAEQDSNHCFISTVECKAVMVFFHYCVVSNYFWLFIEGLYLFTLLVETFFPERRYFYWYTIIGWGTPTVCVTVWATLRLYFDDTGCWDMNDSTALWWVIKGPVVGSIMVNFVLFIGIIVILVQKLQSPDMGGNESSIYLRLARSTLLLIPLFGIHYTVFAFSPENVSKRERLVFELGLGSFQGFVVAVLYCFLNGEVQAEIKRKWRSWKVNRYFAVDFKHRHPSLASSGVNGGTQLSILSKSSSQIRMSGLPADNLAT

In the case of “HSDGIFTDSYSRYRKQMAVKKYLAAVLGKRYKQRVKNK [PACAP38]”, the EC50 ([1]; 24-hour incubation, FIG. 3, read-out: concentration giving 50% inhibition of the rate of proliferation (EC50)) is reported as roughly 0.25 nM, the “reduction in cisplatin-induced apoptotic cell death” value [2] is reported as “significant reduction” and the “reversal of the rise in serum creatinine caused by ischemia/reperfusion” value [3] is reported as “almost completely reversed”. For the same substance, the “sensitivity of cell proliferation” value [4] was “sensitive”, the “sensitivity of cell proliferation” value [5] was “still sensitive” and the “cytoprotective potency, PACAP38 versus [Pip^3]PACAP38” value [6] was “more effective”. For the same substance, the “reduction in gentamicin-induced apoptotic cell death” value ([6]; various concentrations) was “significant dose-dependent reduction; also recorded: dose-dependent inhibition”, the “reduction of the infarct volume” value ([7]; continuous i.v. infusion beginning 4 hours after start of 2-hour MCAO) was “approximately 51%” and the “reduction of the infarct volume” value ([7]; continuous i.v. infusion beginning 8 hours after start of 2-hour MCAO) was roughly 22%. The “reduction of the infarct volume” value ([7]; continuous i.v. infusion beginning 12 hours after start of 2-hour MCAO) was roughly 12%.
For [^125I]-PACAP38, the “half-life in the bloodstream” value [8] is listed as 5 to 6 min.
In the case of PACAP, the “peaks of bimodal dose-response curve for prevention of neuronal death” value [9] is listed as 10^−13 M and 10^−10 M and the “only untoward effect reported” value [10] is listed as “transient flushing”.
In the case of VIP, the “potency compared with PACAP38 or the novel PACAP38 analogs” value ([1]; inhibition of myeloma cell proliferation) is reported as “significantly less potent”, the “reduction in cisplatin-induced apoptotic cell death” value [2] is reported as “reduced” and the “cytoprotective potency compared with PACAP38” value ([2]; comparable concentrations) is reported as “significantly less potent than PACAP38”. For the same substance, the “affinity for PAC1 receptor relative to PACAP” value (PAC1 receptor) was 1,000 times less.
